According to patent US20120128654A1, “Allantoin Administration for the Treatment of Neurodegenerative Disease and Neurotrauma” (UNIVERSITY OF CINCINNATI, priority 2009, published 2012):
“Also recorded” adds a separate entry of the source.

Legend:
[1] = Plasma purine levels following subcutaneous purine and KO pellet administration; format: in vivo, Sprague Dawley rats; settings: rats, four days following pellet implantation; for plasma allantoin levels: matrix-driven s.c. pellets, vs control
Text: (§1) Continuous s.c. delivery of INO, KO and ALL was achieved by implanting matrix-driven pellets into the s.c. space. Animals were anesthetized with isofluorane and prepared for surgery using sterile procedures. A small incision was made posterior to the scapula and the pellet was placed in the subscapular space contralateral to the incision. This placement technique prevents migration of the pellet towards the incision, thereby reducing the incidents of rejection. Finally, the incision was closed using aseptic procedures. To determine the roles of UA and allantoin in inosine-mediated neuroprotection, animals were treated with the urate oxidase inhibitor KO. This approach has been widely used to prevent the enzymatic metabolism of UA to allantoin in other rodent models of disease.
For HPLC analysis of plasma inosine, hypoxanthine, xanthine and UA, an antioxidant solution was added to an equal volume of plasma and samples were centrifuged at 14,000 g for 20 minutes at 4° C. The supernatant was collected for HPLC analysis. Samples were separated on a Hypersil ODS column (Thermo-Fisher Scientific, Waltham, Mass.). Compounds were detected using a Photodiode Array Detector attached to a Waters 2695 Solvent Delivery System under the following conditions: the mobile phase consisted of 0.5% KH2PO4 at a pH of 4.6. Unknown samples were quantified against a 6-point standard curve with a minimum r^2 of 0.97. Quality control samples were interspersed with each run to ensure HPLC calibration. Data are expressed in μg/ml.
For plasma analysis of allantoin venous blood was obtained from the right ventricle (rat) and collected from repeated blood draws (African green monkey). Blood was immediately centrifuged at 10,500 rpms (this needs to be in G) for 5 minutes. Supernatant was then removed and analyzed for allantoin. Enzymatic detection of allantoin was performed as previously described with the exception of reaction volumes being adjusted to accommodate the use of a 96 well microtiter plate (Muratsubaki et al., Enzymatic assay of allantoin in serum using allantoinase and allantoate amidohydrolase, Anal. Biochem. 359:161-166 (2006)). […] Following a 15 minute incubation, absorbance was read on a spectrometer at 340 nm. […] Following a 10 minute incubation absorbance was once again measured at 340 nm. The final absorbance was subtracted from the absorbance following the addition of allantoinase. […]
To determine the impact of peripheral administration of purines on plasma purine levels, animals were divided into 5 groups INO (n=12), INO/KO (n=12), ALL (n=12), KO (n=12), and sham pellet implantation. […] Plasma ALL levels were determined enzymatically.

[2] = system: 6-OHDA induced forelimb akinesia; test: Cylinder testing for forelimb akinesia after intrastriatal 6-OHDA; format: in vivo, Sprague Dawley rats; settings: cylinder test, s.c. pellets implanted 3 days prior to intrastriatal 6-OHDA, four and six weeks post lesion, vs control
Text: as §1
Rats were anesthetized prior to surgery with Equi-Thesin (0.3 ml/100 g body weight i.p.; chloral hydrate 42.5 mg/ml+sodium pentobarbital 9.72 mg/ml), their heads shaved, and then they were placed in a stereotaxic frame. Their skin was swabbed with Betadyne followed by 70% ETOH. The scalp was then opened to expose the skull. Two 1 mm holes were drilled into the skull and rats were injected in two sites in the striatum with 6-OHDA (MP Biomedicals, Solon, Ohio; 5 μg/μl 6-OHDA in 0.2% ascorbic acid, 0.9% saline solution). […]
Non-drugged, spontaneous use of the forepaws was measured in rats as described by Schallert (Schallert, T., Behavioral tests for preclinical intervention assessment, NeuroRx 3:497-504 (2006)) prior to pellet and intrastriatal 6-OHDA and at both four weeks and six weeks after 6-OHDA. […] Videotapes were analyzed by a rater blinded to treatment. The number of times the rat used its left, right, or both paws for weight bearing in a given trial was determined and noted. […]
In the first experiment, rats were divided into four different groups INO (n=6), INO/potassium oxonate (KO blocks conversion of UA to ALL) (n=6), ALL (n=6), and sham pellet implantation. […] In experiment 1, rats were assessed for forelimb akinesia prior to, and […] and 6 weeks after intrastriatal 6-OHDA infusion. […]

SMILES	plasma allantoin levels [1]	plasma levels of any other purines ([1]; s.c. pellets)	forelimb akinesia [2]	forelimb akinesia ([2]; listed as Inosine)	plasma allantoin levels ([1]; listed as Allantoin)
OC[C@H]1O[C@@H](n2cnc3c(O)ncnc32)[C@H](O)[C@@H]1O [inosine]	significantly increased	without affecting	significantly attenuated	significantly ameliorated forelimb akinesia six weeks post lesion	–
NC(=O)NC1NC(=O)NC1=O (stereo not shown) [allantoin]	increase in plasma allantoin similar to what was seen in the inosine only group	–	reduced at four and six weeks post-lesion; also recorded: significantly attenuated	–	significantly increased
